This passage reports remaining activity results from patent US12209079B2 (GENERAL INCORPORATED ASSOCIATION PHARMA VALLEY PROJECT …, priority 2017, dated 2025).

Where a name gives a salt, the structure may show the parent alone.

Assay [1] addresses rhIDO (recombinant human IDO) (Homo sapiens, UniProt P14902). The assay is described as follows: Enzyme assay using rhIDO (rate of kynurenine production). It counts as biochemical. As to conditions: 2 h; final concentration of the compound 10 μM; rate relative to reaction without compound; read-out: rhIDO-mediated kynurenine production. A digest of the protocol: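 rhIDO preincubated with compound 10 min at 37 °C in phosphate buffer with ascorbate, methylene blue and catalase; started with 2 mM tryptophan solution (stock) and run 120 min at 37 °C. Stopped with TCA and heated to convert N-formylkynurenine; kynurenine read at 490 nm after p-dimethylbenzaldehyde, background-subtracted, as % of no-compound control.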

The next assay concerns the target T1, IDO in A431 cells (Homo sapiens, UniProt P14902).
T1 construct: endogenous in cells; host or cells: A431 cells, IFN-γ stimulated
The assay is described as follows: IDO cell-based assay, kynurenine production in IFN-γ stimulated A431 cells. As to conditions: A-431, 24 h; final concentration of the compound 10 μM; rate relative to culture without compound. A digest of the protocol:
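A431 cells were cultured 24 h, then preincubated 1 h with compound in medium containing 178 μM L-tryptophan, and stimulated with IFN-γ (diluted to 100 ng/mL before addition) for 24 h. Kynurenine was measured by p-dimethylbenzaldehyde absorbance at 460 nm, background-subtracted, and expressed as % production versus no-compound control.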

The target in assay [2] is rhTDO (recombinant human TDO) (Homo sapiens, UniProt P48775). The experiment in a line: Enzyme assay using rhTDO (rate of kynurenine production). The format is biochemical. The conditions noted are these: 2 h; final concentration of the compound 10 μM; rate relative to reaction without compound; read-out: rhTDO-mediated kynurenine production. In outline: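 Kynurenine output, as percent of untreated control after background subtraction, read at 490 nm with p-dimethylbenzaldehyde following TCA quench and 15 min heating at 50 °C. Reaction: rhTDO with compound, 10 min preincubation then 120 min at 37 °C, started by 20 mM tryptophan stock, in phosphate/ascorbate/methylene blue/catalase.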
Chain of rhTDO (recombinant human TDO) (P48775 whole entry): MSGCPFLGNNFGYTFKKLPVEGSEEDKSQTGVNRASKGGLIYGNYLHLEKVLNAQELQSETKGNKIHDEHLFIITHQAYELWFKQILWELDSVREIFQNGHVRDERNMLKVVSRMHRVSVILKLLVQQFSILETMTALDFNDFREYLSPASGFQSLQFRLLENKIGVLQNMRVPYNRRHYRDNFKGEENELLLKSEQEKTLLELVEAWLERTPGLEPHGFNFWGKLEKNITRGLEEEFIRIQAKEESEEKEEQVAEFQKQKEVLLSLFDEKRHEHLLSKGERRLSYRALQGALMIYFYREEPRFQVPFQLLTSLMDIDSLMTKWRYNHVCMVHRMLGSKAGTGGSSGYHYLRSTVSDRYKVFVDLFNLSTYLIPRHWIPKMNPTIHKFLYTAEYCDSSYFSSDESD

The next assay concerns the target T2, TDO in A172 cells (Homo sapiens, UniProt P48775).
T2 construct: endogenous in cells; host or cells: A172 cells
The experiment in a line: TDO cell-based assay, kynurenine production in A172 cells. The conditions noted are these: A 172; final concentration of the compound 10 μM; rate relative to culture without compound. In outline: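 A172 cells were preincubated with compound for 1 h, then given L-tryptophan (final 524 μM) for 24 h at 37 °C. Kynurenine was read at 460 nm after p-dimethylbenzaldehyde/TCA reagent, background-subtracted, and expressed as % of no-compound production.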

T2 sequence (P48775 whole entry): as above
Chain of rhIDO (recombinant human IDO) (P14902 whole entry): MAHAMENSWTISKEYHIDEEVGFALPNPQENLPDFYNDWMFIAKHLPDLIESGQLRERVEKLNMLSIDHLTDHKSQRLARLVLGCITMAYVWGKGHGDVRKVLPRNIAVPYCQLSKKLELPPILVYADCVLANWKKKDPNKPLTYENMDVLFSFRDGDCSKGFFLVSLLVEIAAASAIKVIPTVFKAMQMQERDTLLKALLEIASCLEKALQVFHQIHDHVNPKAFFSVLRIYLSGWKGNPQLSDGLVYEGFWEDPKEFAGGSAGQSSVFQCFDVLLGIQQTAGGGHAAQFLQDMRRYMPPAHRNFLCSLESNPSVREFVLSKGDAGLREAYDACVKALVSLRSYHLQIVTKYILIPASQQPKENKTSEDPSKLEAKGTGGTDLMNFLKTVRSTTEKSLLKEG
T1 sequence (P14902 whole entry): as above

For the compound `N/C(=N\c1ccc(F)c(Cl)c1)SCc1cc(Br)ccc1C(=O)NCc1ccc(F)cc1` [Compound 88, 5-Bromo-2-((4-fluorobenzyl)carbamoyl)benzyl (E)-N′-(3-chloro-4-fluorophenyl)carbamimidothioate hydrobromide], the remaining activity at 10 µM in assay [1] is 82%; at IDO in A431 cells, 64%; in assay [2] it was 92%; at TDO in A172 cells it was 28%.

Turning to `N=C(N)SCc1cc(Br)ccc1C(=O)NCc1ccc(Cl)cc1Cl` [Compound 89, 5-Bromo-2-((2,4-dichlorobenzyl)carbamoyl)benzyl carbamimidothioate hydrobromide], the remaining activity at 10 µM in assay [1] was determined as 81%; at IDO in A431 cells it was 122%; in assay [2] it was 12%; on TDO in A172 cells it was 51%.

Regarding `Cc1ccc(CNC(=O)c2ccc(Br)cc2CSC(=N)N)cc1` [Compound 90, 5-Bromo-2-((4-methylbenzyl)carbamoyl)benzyl carbamimidothioate hydrobromide], the remaining activity at 10 µM was 90% in assay [1], 96% on IDO in A431 cells, 45% in assay [2] and 51% on TDO in A172 cells.

For `Cc1ccc(CNC(=O)c2ccc(Br)cc2CS/C(N)=N/c2ccc(F)c(Cl)c2)cc1` [Compound 91, 5-Bromo-2-((4-methylbenzyl)carbamoyl)benzyl (E)-N′-(3-chloro-4-fluorophenyl)carbamimidothioate hydrobromide], the remaining activity at 10 µM in assay [1] turned out to be 78%; at IDO in A431 cells, 51%; in assay [2], 103%; at TDO in A172 cells, 26%.

Consider `CNC(=O)c1ccccc1CSC(=N)N` [Compound 92, 2-(Methylcarbamoyl)benzyl carbamimidothioate hydrobromide], for which the remaining activity at 10 µM was determined as 90% in assay [1], 112% on IDO in A431 cells, 68% in assay [2] and 81% at TDO in A172 cells.

`N=C(N)SCc1cc(Br)ccc1C(=O)NCC1CC1` [Compound 93, 5-Bromo-2-((cyclopropylmethyl)carbamoyl)benzyl carbamimidothioate hydrobromide]: the remaining activity at 10 µM in assay [1] was 103%; at IDO in A431 cells it was 124%; in assay [2] it was 53%; at TDO in A172 cells it was 49%.

In the case of `N=C(N)SCc1cc(Br)ccc1C(=O)NCc1ccc(Cl)c(Cl)c1` [Compound 94, 5-Bromo-2-((3,4-dichlorobenzyl)carbamoyl)benzyl carbamimidothioate hydrobromide], the remaining activity at 10 µM in assay [1] is 80%; at IDO in A431 cells, 158%; in assay [2] it was 15%; on TDO in A172 cells it was 59%.

With `N#Cc1ccc(CNC(=O)c2ccccc2CSC(=N)N)cc1` [Compound 96, 2-((4-Cyanobenzyl)carbamoyl)benzyl carbamimidothioate hydrobromide], the remaining activity at 10 µM in assay [1] was found to be 71%; on IDO in A431 cells it was 93%; in assay [2], 26%; at TDO in A172 cells, 38%.

`N=C(N)SCc1cc(Br)ccc1C(=O)NCc1ccc(Br)cc1` [Compound 97, 5-Bromo-2-((4-bromobenzyl)carbamoyl)benzyl carbamimidothioate hydrobromide]: the remaining activity at 10 µM in assay [1] was found to be 85%; on IDO in A431 cells, 83%; in assay [2], 16%; at TDO in A172 cells, 37%.

For `CNC(=O)c1ncccc1CSC(=N)N` [Compound 98, (2-(Methylcarbamoyl)pyridin-3-yl)methyl carbamimidothioate hydrobromide], the remaining activity at 10 µM in assay [1] is 95%; on IDO in A431 cells, 107%; in assay [2] it was 91%; on TDO in A172 cells, 133%.

For `N#Cc1ccc(CNC(=O)c2ncccc2CSC(=N)N)cc1` [Compound 99, (2-((4-Cyanobenzyl)carbamoyl)pyridin-3-yl)methyl carbamimidothioate hydrobromide], the remaining activity at 10 µM is 96% in assay [1], 102% on IDO in A431 cells, 75% in assay [2] and 106% on TDO in A172 cells.

Consider `CNC(=O)c1cccnc1CSC(=N)N` [Compound 100, (3-(Methylcarbamoyl)pyridin-2-yl)methyl carbamimidothioate hydrobromide], for which the remaining activity at 10 µM in assay [1] was found to be 88%; on IDO in A431 cells, 93%; in assay [2], 84%; at TDO in A172 cells, 123%.

Turning to `N#Cc1ccc(CNC(=O)c2ncccc2CS/C(N)=N/c2ccc(F)c(Cl)c2)cc1` [Compound 101, (2-((4-Cyanobenzyl)carbamoyl)pyridin-3-yl)methyl (E)-N′-(3-chloro-4-fluorophenyl)carbamimidothioate hydrobromide], the remaining activity at 10 µM in assay [1] came out at 78%; on IDO in A431 cells, 61%; in assay [2], 84%; at TDO in A172 cells, 70%.

As for `COc1ccc(CNC(=O)c2ccc(Br)cc2CSC(=N)N)cc1` [Compound 102, 5-Bromo-2-((4-methoxybenzyl)carbamoyl)benzyl carbamimidothioate hydrobromide], the remaining activity at 10 µM in assay [1] was found to be 97%; on IDO in A431 cells, 112%; in assay [2] it was 58%; at TDO in A172 cells it was 38%.

Turning to `N#Cc1ccc(CNC(=O)c2ccccc2C[Se]C(=N)N)cc1` [Compound 104, 2-((4-Cyanobenzyl)carbamoyl)benzyl carbamimidoselenoate hydrobromide], the remaining activity at 10 µM in assay [1] is 78%; at IDO in A431 cells, -4%; in assay [2], 81%; at TDO in A172 cells, -1%.

In the case of `COc1cccc(CNC(=O)c2ccc(Br)cc2CSC(=N)N)c1` [Compound 105, 5-Bromo-2-((3-methoxybenzyl)carbamoyl)benzyl carbamimidothioate hydrobromide], the remaining activity at 10 µM in assay [1] came out at 98%; at IDO in A431 cells it was 107%; in assay [2] it was 68%; at TDO in A172 cells, 42%.

In the case of `COc1cccc(CNC(=O)c2ccc(Br)cc2C[Se]C(=N)N)c1` [Compound 106, 5-Bromo-2-((3-methoxybenzyl)carbamoyl)benzyl carbamimidoselenoate hydrobromide], the remaining activity at 10 µM in assay [1] amounted to 90%; at IDO in A431 cells it was 64%; in assay [2], 98%; at TDO in A172 cells, 48%.

Regarding `N=C(N)[Se]Cc1cc(Br)ccc1C(=O)NCC1CC1` [Compound 107, 5-Bromo-2-((cyclopropylmethyl)carbamoyl)benzyl carbamimidoselenoate hydrobromide], the remaining activity at 10 µM was determined as 97% in assay [1], 44% on IDO in A431 cells, 103% in assay [2] and 12% at TDO in A172 cells.

With `N=C(N)[Se]Cc1ccccc1C[Se]C(=N)N` [Compound 108, 1,2-Phenylenebis(methylene) dicarbamimidoselenoate dihydrobromide], the remaining activity at 10 µM in assay [1] amounted to 51%; at IDO in A431 cells it was 5%; in assay [2], 55%; at TDO in A172 cells, 41%.

Take `N=C(N)[Se]Cc1ccc(Cl)cc1C[Se]C(=N)N` [Compound 109, (4-Chloro-1,2-phenylene)bis(methylene) dicarbamimidoselenoate dihydrobromide]: the remaining activity at 10 µM in assay [1] was determined as 61%; at IDO in A431 cells, 19%; in assay [2] it was 57%; at TDO in A172 cells it was 63%.

As for `N#Cc1ccc(CNC(=O)c2cc(Br)ccc2C[Se]C(=N)N)cc1` [Compound 110, 4-Bromo-2-((4-cyanobenzyl)carbamoyl)benzyl carbamimidoselenoate hydrobromide], the remaining activity at 10 µM in assay [1] is 61%; on IDO in A431 cells, 13%; in assay [2], 59%; on TDO in A172 cells, 38%.

Consider `N#Cc1ccc(CNC(=O)c2cccc(Br)c2CSC(=N)N)cc1` [Compound 111, 2-Bromo-6-((4-cyanobenzyl)carbamoyl)benzyl carbamimidothioate hydrobromide], for which the remaining activity at 10 µM in assay [1] is 17%; on IDO in A431 cells, 53%; in assay [2], 122%; on TDO in A172 cells, 87%.
